Where “and” joins values, the source holds several entries; their conditions need not be identical. Equal values may be shown once.
How the values were obtained:
[1] = system: Peritoneal macrophage; assay: Antiinflammatory activity in […] mouse Peritoneal macrophages assessed as reduction in LPS-induced NO production by measuring reduction in stimulation index at 10 uM preincubated for 1 hr followed by LPS stimulation measured after 24 hrs by Griess method (reference value: 27.31 +/- 2.56 uM); assay type: functional; conditions: time 25 hrs
[2] = system: Splenocyte; assay: Immunomodulatory activity in Swiss albino mouse splenocytes assessed as cell viability at 10 uM by measuring inhibition of stimulation index incubated for 72 hrs in presence of mitogenic stimulus phytohaemagglutinin by MTT assay relative to indomethacin; assay type: functional; conditions: read-out: Activity
[3] = system: Rattus norvegicus; assay: Antiinflammatory activity in Wistar rat model of carrageenan-induced paw edema assessed as reduction in thickness of paw edema at 10 mg/kg, ip pretreated for 1 hr followed by carrageenan challenge and measured after 3 hrs (reference value: 1.79 +/-0.07 mm); assay type: functional; conditions: time 4 hrs
[4] = system: Pseudomonas aeruginosa; assay: Antibacterial activity against Pseudomonas aeruginosa ATCC 27853 incubated for 18 hrs by agar dilution assay; assay type: functional
[5] = system: Staphylococcus aureus; assay: Antibacterial activity against Staphylococcus aureus ATCC 25923 incubated for 18 hrs by agar dilution method; assay type: functional
[6] = system: Rattus norvegicus; assay: Antiinflammatory activity in Wistar rat model of carrageenan-induced paw edema assessed as reduction in thickness of paw edema at 10 mg/kg, ip pretreated for 1 hr followed by carrageenan challenge and measured after 2 hrs (reference value: 2.06 +/-0.09 mm); assay type: functional; conditions: time 3 hrs
[7] = system: Rattus norvegicus; assay: Antiinflammatory activity in Wistar rat model of carrageenan-induced paw edema assessed as reduction in thickness of paw edema at 10 mg/kg, ip pretreated for 1 hr followed by carrageenan challenge and measured after 1 hr (reference value: 2.41 +/-0.05 mm); assay type: functional; conditions: time 1 hr after carrageenan
[8] = system: Rattus norvegicus; assay: Anti-inflammatory activity in Wistar rat assessed as inhibition of carrageenan-induced paw edema at 10 mg/kg, ip pretreated for 1 hr followed by carrageenan challenge and measured after 4 hr relative to control (reference value: 0.00 +/-0.4 %); assay type: functional; conditions: time 5 hrs
[9] = system: Rattus norvegicus; assay: Anti-inflammatory activity in Wistar rat assessed as inhibition of carrageenan-induced paw edema at 10 mg/kg, ip pretreated for 1 hr followed by carrageenan challenge and measured after 3 hr relative to control (reference value: 0.00 +/-0.1 %); assay type: functional; conditions: time 4 hrs
[10] = system: Streptococcus pyogenes; assay: Antibacterial activity against Streptococcus pyogenes ATCC 19615 incubated for 18 hrs by agar dilution method; assay type: functional
[11] = system: Salmonella typhimurium; assay: Antibacterial activity against Salmonella typhimurium ATCC 19430 incubated for 18 hrs by agar dilution assay; assay type: functional, Salmonella enterica subsp. enterica serovar Typhimurium; conditions: Salmonella enterica
[12] = system: Rattus norvegicus; assay: Anti-inflammatory activity in Wistar rat assessed as inhibition of carrageenan-induced paw edema at 10 mg/kg, ip pretreated for 1 hr followed by carrageenan challenge and measured after 2 hr relative to control (reference value: 0.00 +/-0.03 %); assay type: functional; conditions: time 3 hrs
[13] = system: Candida albicans; assay: Antifungal activity against Candida albicans incubated for 18 to 24 hrs by CLSI method; assay type: functional; conditions: time 18-24 hrs
[14] = system: Rattus norvegicus; assay: Anti-inflammatory activity in Wistar rat assessed as inhibition of carrageenan-induced paw edema at 10 mg/kg, ip pretreated for 1 hr followed by carrageenan challenge and measured after 4 hr relative to indomethacin; assay type: functional; conditions: time 5 hrs
[15] = system: Rattus norvegicus; assay: Anti-inflammatory activity in Wistar rat assessed as inhibition of carrageenan-induced paw edema at 10 mg/kg, ip pretreated for 1 hr followed by carrageenan challenge and measured after 24 hr relative to control (reference value: 0.00 +/-0.3 %); assay type: functional; conditions: time 25 hrs
[16] = system: Rattus norvegicus; assay: Antiinflammatory activity in Wistar rat model of carrageenan-induced paw edema assessed as reduction in thickness of paw edema at 10 mg/kg, ip pretreated for 1 hr followed by carrageenan challenge and measured after 4 hrs (reference value: 1.40 +/-0.10 mm); assay type: functional; conditions: time 5 hrs
[17] = system: Rattus norvegicus; assay: Anti-inflammatory activity in Wistar rat assessed as inhibition of carrageenan-induced paw edema at 10 mg/kg, ip pretreated for 1 hr followed by carrageenan challenge and measured after 1 hr relative to control (reference value: 0.00 +/-0.02 %); assay type: functional; conditions: time 2 hrs
[18] = system: Rattus norvegicus; assay: Antiinflammatory activity in Wistar rat model of carrageenan-induced paw edema assessed as reduction in thickness of paw edema at 10 mg/kg, ip pretreated for 1 hr followed by carrageenan challenge and measured after 24 hrs (reference value: 0.83 +/-0.08 mm); assay type: functional; conditions: time 25 hrs
[19] = system: Peritoneal macrophage; assay: Antiinflammatory activity in […] mouse Peritoneal macrophages assessed as inhibition of LPS-induced NO production at 10 uM preincubated for 1 hr followed by LPS stimulation measured after 24 hrs by Griess method relative to control (reference value: 0.0 %); assay type: functional; parameters: scale not given: the % may be the effect or the level left; conditions: time 25 hrs
[20] = system: Splenocyte; assay: Immunomodulatory activity in Swiss albino mouse splenocytes assessed as cell viability at 10 uM by measuring stimulation index incubated for 72 hrs in presence of mitogenic stimulus phytohaemagglutinin by MTT assay (reference value: 1.00 +/- 0.24); assay type: functional

Row | Structure (SMILES) | Activity [1] | viability at 10 µM [2] | Activity [3] | MIC [4] | MIC [5] | Activity [6] | Activity [7] | inhibition in vivo at 10 mg/kg [8] | inhibition in vivo at 10 mg/kg [9] | MIC [10] | MIC [11] | inhibition in vivo at 10 mg/kg [12] | MIC [13] | inhibition in vivo at 10 mg/kg [14] | inhibition in vivo at 10 mg/kg [15] | Activity [16] | inhibition in vivo at 10 mg/kg [17] | Activity [18] | Activity [19] | Activity_index [20]
1 | COc1cc(/C=C/C(=O)/C=C(O)/C=C/c2ccc(OC(=O)[C@H](CCC(N)=O)NC(=O)OC(C)(C)C)c(OC)c2)ccc1OC(=O)[C@H](CCC(N)=O)NC(=O)OC(C)(C)C | 21.22 µM | 56.6% | 1.22 mm | 1 µg/mL and 1.21 µM | 0.125 µg/mL and 0.152 µM | 1.73 mm | 2.16 mm | 41% | 32% | 0.25 µg/mL and 0.303 µM | 0.125 µg/mL and 0.152 µM | 16% | 2 µg/mL and 2.42 µM | 47% | 57% | 0.83 mm | 10% | 0.36 mm | 22.29% | 2.14
2 | CC[C@H](C)[C@H](NC(=O)OC(C)(C)C)C(=O)Oc1ccc(/C=C/C(=O)/C=C(O)/C=C/c2ccc(OC(=O)[C@@H](NC(=O)OC(C)(C)C)[C@@H](C)CC)c(OC)c2)cc1OC | 20.81 µM | 58.3% | 0.91 mm | 1 µg/mL and 1.26 µM | 0.125 µg/mL and 0.157 µM | 1.27 mm | 1.61 mm | 51% | 49% | 0.25 µg/mL and 0.314 µM | 0.125 µg/mL and 0.157 µM | 38% | 2 µg/mL and 2.52 µM | 59% | 41% | 0.69 mm | 33% | 0.49 mm | 23.82% | 2.07
3 | COc1cc(/C=C/C(=O)/C=C(O)/C=C/c2ccc(OC(=O)[C@@H](C)NC(=O)OC(C)(C)C)c(OC)c2)ccc1OC(=O)[C@@H](C)NC(=O)OC(C)(C)C | 20.81 µM | 58.3% | 1.09 mm | 0.25 µg/mL and 0.352 µM | 0.125 µg/mL and 0.176 µM | 1.46 mm | 1.87 mm | 42% | 39% | 1 µg/mL and 1.41 µM | 0.25 µg/mL and 0.352 µM | 29% | 0.5 µg/mL and 0.703 µM | 48% | 37% | 0.81 mm | 22% | 0.52 mm | 23.82% | 2.07
4 | COc1cc(/C=C/C(=O)/C=C(O)/C=C/c2ccc(OC(=O)[C@@H](NC(=O)OC(C)(C)C)C(C)C)c(OC)c2)ccc1OC(=O)[C@@H](NC(=O)OC(C)(C)C)C(C)C | 19.29 µM | 65.6% | 1.34 mm | 2 µg/mL and 2.61 µM | 0.25 µg/mL and 0.326 µM | 1.57 mm | 2.09 mm | 43% | 25% | 2 µg/mL and 2.61 µM | 0.25 µg/mL and 0.326 µM | 24% | 1 µg/mL and 1.3 µM | 49% | 30% | 0.8 mm | 13% | 0.58 mm | 29.35% | 1.84
5 | COc1cc(/C=C/C(=O)/C=C(O)/C=C/c2ccc(OC(=O)CCNC(=O)OC(C)(C)C)c(OC)c2)ccc1OC(=O)CCNC(=O)OC(C)(C)C | 18.35 µM | 71.1% | 0.99 mm | 0.25 µg/mL and 0.352 µM | 0.25 µg/mL and 0.352 µM | 1.38 mm | 1.66 mm | 61% | 45% | 0.25 µg/mL and 0.352 µM | 0.5 µg/mL and 0.703 µM | 33% | 0.5 µg/mL and 0.703 µM | 70% | 28% | 0.55 mm | 31% | 0.6 mm | 32.81% | 1.7
6 | COc1cc(/C=C/C(=O)/C=C(O)/C=C/c2ccc(OC(=O)C(C)NC(=O)OC(C)(C)C)c(OC)c2)ccc1OC(=O)C(C)NC(=O)OC(C)(C)C (stereo not given) | 18.88 µM | 67.9% | 1.34 mm | 0.25 µg/mL and 0.352 µM | 0.25 µg/mL and 0.352 µM | 1.74 mm | 2.15 mm | 40% | 25% | 0.125 µg/mL and 0.176 µM | 0.25 µg/mL and 0.352 µM | 16% | 0.5 µg/mL and 0.703 µM | 46% | 29% | 0.84 mm | 11% | 0.59 mm | 30.88% | 1.78
7 | COc1cc(/C=C/C(=O)/C=C(O)/C=C/c2ccc(OC(=O)CNC(=O)OC(C)(C)C)c(OC)c2)ccc1OC(=O)CNC(=O)OC(C)(C)C | 18.12 µM | 57.4% | 1 mm | 0.25 µg/mL and 0.366 µM | 0.25 µg/mL and 0.366 µM | 1.16 mm | 1.37 mm | 48% | 44% | 1 µg/mL and 1.47 µM | 0.125 µg/mL and 0.183 µM | 44% | 0.5 µg/mL and 0.732 µM | 55% | 47% | 0.73 mm | 43% | 0.44 mm | 33.65% | 2.11
8 | COc1cc(/C=C/C(=O)/C=C(O)/C=C/c2ccc(OC(=O)[C@H](C)NC(=O)OC(C)(C)C)c(OC)c2)ccc1OC(=O)[C@H](C)NC(=O)OC(C)(C)C | 21.3 µM | 44.6% | 1.44 mm | 1 µg/mL and 1.41 µM | 0.125 µg/mL and 0.176 µM | 1.84 mm | 2.26 mm | 28% | 20% | 0.25 µg/mL and 0.352 µM | 0.125 µg/mL and 0.176 µM | 11% | 1 µg/mL and 1.41 µM | 32% | 5% | 1.04 mm | 6% | 0.79 mm | 22.02% | 2.71

Source: ChEMBL document CHEMBL4765295, “Synthesis, pharmacological profile and 2D-QSAR studies of curcumin-amino acid conjugates as potential drug candidates” (Eur J Med Chem, 2020)
